In patent US20180155341A1, “Antibacterial Compounds” (Janssen Sciences Ireland UC, priority 2015, published 2018):
≈ marks a conversion by molar mass, not a printed value.

Assays:
[1] = tested on: Mycobacterium tuberculosis strain EH 4.0 (361.269); assay: Test 4: MIC determination against M. tuberculosis, resazurin fluorescence read-out, different strain; format: cell-based; conditions: read-out: pIC50 (converted)
Excerpt: Test 4 (See Also Test 1 Above; in this Test a Different Strain of Mycobacterium tuberculosis Strain is Employed)
Appropriate solutions of experimental and reference compounds were made in 96 well plates with 7H9 medium. Samples of Mycobacterium tuberculosis strain EH 4.0 (361.269) were taken from cultures in stationary growth phase. These were first diluted to obtain an optical density of 0.3 at 600 nm wavelength and then diluted 1/100, resulting in an inoculum of approximately 5×10 exp5 colony forming units per well. Plates were incubated at 37° C. in plastic bags to prevent evaporation. After 7 days, resazurin was added to all wells.

[2] = tested on: Mycobacterium tuberculosis strain H37Rv; assay: Test 1: MIC determination against M. tuberculosis, resazurin fluorescence read-out; format: cell-based; conditions: Test 1, strain H37Rv
M. tuberculosis H37Rv = conditions: strain H37Rv, inside macrophages; cited from earlier work
[3] = tested on: replicating and non-replicating bacteria; conditions: stated in J. Medicinal Chemistry, 2014, 57 (12); cited from earlier work
MDR tuberculosis = conditions: stated in J. Medicinal Chemistry, 2014, 57 (12); cited from earlier work

CCc1nc2ncc(Cl)cn2c1C(=O)NCc1ccc2nc(N3CC4(CC(c5ccc(OC(F)(F)F)cc5)C4)C3)ccc2c1 [Compound 1]
IC50 [1]: 39.8 nM

CCc1nc2ccc(Cl)cn2c1C(=O)NCc1ccc2nc(N3CC4(CC(c5ccc(OC(F)(F)F)cc5)C4)C3)ccc2c1 [Compound 2]
IC50 ([2]; first test): 676 nM
IC50 ([2]; repeated (2nd) test): 692 nM
IC50 ([2]; repeated (3rd) test): 589 nM
IC50 [1]: 200 nM

CCc1nc2ccc(Cl)cn2c1C(=O)NCc1ccc2nc(N3CCC(c4ccc(OC(F)(F)F)cc4)CC3)ccc2c1 [Compound 3]
IC50 [1]: 50.1 nM

CCc1nc2ccc(Cl)cn2c1C(=O)NCc1ccc2nc(N3CC4CC(F)CC4C3)ccc2c1 (centres unmarked) [Compound 4]
IC50 [1]: 31.6 nM

Cc1nc2sccn2c1C(=O)NCc1ccc2nc(N3CCC(c4ccc(OC(F)(F)F)cc4)CC3)ccc2c1 [Compound 7]
IC50 [1]: 200 nM

CCc1nc2n(c1C(=O)NCc1ccc3nc(N4CCC(c5ccc(OC(F)(F)F)cc5)CC4)ccc3c1)CCN(C)C2 [Compound 8]
IC50 [1]: 158 nM

Cc1nc2sccn2c1C(=O)NCc1ccc2nc(N3CCN(c4ccc(OC(F)(F)F)cc4)CC3)ccc2c1 [Compound 9]
IC50 [1]: 141 nM

CCc1nc2n(c1C(=O)NCc1ccc3nc(N4CCN(c5ccc(OC(F)(F)F)cc5)CC4)ccc3c1)CCCC2 [Compound 10]
IC50 [1]: 126 nM

Cc1nc2sccn2c1C(=O)NCc1ccc2nc(N(C)CCc3ccc(OC(F)(F)F)cc3)ccc2c1 [Compound 11]
IC50 [1]: 355 nM

CCc1c(C(=O)NCc2ccc3nc(N4CC5(CC(c6ccccc6)C5)C4)ccc3c2)c2cc(Cl)cnc2n1C [Compound 12]
IC50 [1]: > 12600 nM

CCc1c(C(=O)NCc2ccc3nc(N4CC(c5ccccc5)C4)ccc3c2)c2cc(Cl)cnc2n1C [Compound 13]
IC50 [1]: > 12600 nM

CCc1nc2ccc(Cl)cn2c1C(=O)NCc1ccc2nc(N(C)Cc3ccc(OC(F)(F)F)cc3)cnc2c1 [Compound 15]
IC50 [1]: 631 nM

CCc1nc2ccc(Cl)cn2c1C(=O)NCc1ccc2nc(N(C)Cc3ccc(OC(F)(F)F)cc3)ccc2c1 [Compound 17]
IC50 [1]: 79.4 nM

CCc1nc2ccc(Cl)cn2c1C(=O)NCc1ccc2cc(N(C)Cc3ccc(OC(F)(F)F)cc3)cnc2c1 [Compound 18]
IC50 [1]: 1000 nM

Cc1nc2sccn2c1C(=O)NCc1ccc2nc(N(C)Cc3ccc(OC(F)(F)F)cc3)ccc2c1 [Compound 19]
IC50 [1]: 282 nM

CCc1nc2ccc(Cl)cn2c1C(=O)NCc1ccc2ncc(N(C)Cc3ccc(OC(F)(F)F)cc3)cc2c1 [Compound 20]
IC50 [1]: 794 nM

CCc1c(C(=O)NCc2ccc3nc(N4CCC(c5ccc(OC(F)(F)F)cc5)CC4)ccc3c2)c2cc(Cl)ccc2n1C [Compound 21]
IC50 [1]: > 12600 nM

CCc1c(C(=O)NCc2ccc3nc(N4CCC(c5ccc(OC(F)(F)F)cc5)CC4)ccc3c2)c2cc(Cl)cnc2n1C [Compound 22]
IC50 [1]: > 12600 nM

O=C(NCc1ccc2nc(N3CCC(c4ccc(OC(F)(F)F)cc4)CC3)ccc2c1)c1cc2c([nH]1)CCCC2 [Compound 23]
IC50 [1]: > 12600 nM

CCc1nc2ccc(Cl)cn2c1C(=O)NCc1ccc2nc(N3CCC(F)(F)CC3)ccc2c1 [Compound 24]
IC50 [1]: 6.31 nM

CCc1nc2ccc(Cl)cn2c1C(=O)NCc1ccc2nc(N3CC4(CC(F)C4)C3)ccc2c1 [Compound 25]
IC50 [1]: 178 nM

Cc1nn2ccccc2c1C(=O)NCc1ccc2nc(N3CCC(c4ccc(OC(F)(F)F)cc4)CC3)ccc2c1 [Compound 26]
IC50 [1]: 398 nM

Cc1nn2ccccc2c1C(=O)NCc1ccc2nc(N3CCN(c4ccc(OC(F)(F)F)cc4)CC3)ccc2c1 [Compound 27]
IC50 [1]: 794 nM

CCc1nc2ccc(Cl)cn2c1C(=O)NCc1ccc(N2CCC(c3ccc(OC(F)(F)F)cc3)CC2)cc1 [Compound Q203]
MIC50 (M. tuberculosis H37Rv): 0.28 nM (≈ 0.156 ng/mL)
activity against replicating and non-replicating bacteria [3]: highly active
activity against MDR tuberculosis (MDR tuberculosis): activity against MDR tuberculosis
